The results in this text go back to patent publication US20250282768A1 (Janssen Pharmaceutica NV, priority 2022, published 2025).

Bounds are passed on as bounds.

The subject of the assay is p-IKKa levels in L363 (NIK translocated multiple myeloma) cells. Briefly: Assay 2: Effect of compounds on p-IKKa levels in L363 (NIK translocated multiple myeloma) cells. It is filed as cell-based. As to conditions: Homo sapiens, L-363, 6 h, read-out: Assay 2 IC50 (nM), p-IKKa (Ser 176/180) in BAFF stimulated L363 cells with MG132, 6 h; average if tested more than once. In a few lines: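 Read-out is p-IKKa Ser176/180 by AlphaLISA SureFire in lysates. Cells were BAFF-primed (250 ng/ml) overnight or left unstimulated, then exposed 6 h at 37 °C to compound with MG132 (10 μM), 0.3% DMSO. IC50 from sigmoidal curve fit, normalized between stimulated and unstimulated controls.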
Regarding `CN1CC[C@@](O)(c2cc(-c3cccc(-c4ccnc(Nc5cnn6c5OCCC6)n4)c3)no2)C1=O` [Example 15, (R)-3-(3-(3-(2-((6,7-Dihydro-5H-pyrazolo[5,1-b][1,3]oxazin-3-yl)amino)pyrimidin-4-yl)phenyl)isoxazol-5-yl)-3-hydroxy-1-methylpyrrolidin-2-one], the IC50 is > 500 nM.
`COc1cn(C)nc1Nc1nccc(-c2cccc(-c3cc([C@]4(O)CCN(C)C4=O)on3)c2)n1` [Example 16, (R)-3-Hydroxy-3-(3-(3-(2-((4-methoxy-1-methyl-1H-pyrazol-3-yl)amino)pyrimidin-4-yl)phenyl)isoxazol-5-yl)-1-methylpyrrolidin-2-one]: the IC50 was > 500 nM.
As for `COc1nn(C)cc1Nc1nccc(-c2cccc(-c3cc([C@]4(O)CCN(C)C4=O)on3)c2)n1` [Example 17, (R)-3-Hydroxy-3-(3-(3-(2-((3-methoxy-1-methyl-1H-pyrazol-4-yl)amino)pyrimidin-4-yl)phenyl)isoxazol-5-yl)-1-methylpyrrolidin-2-one], the figure is 50 to 500 nM.
As for `CN1CC[C@@](O)(c2cc(-c3cccc(-c4ccnc(Nc5cnn6cccnc56)n4)c3)no2)C1=O` [Example 18, (R)-3-Hydroxy-1-methyl-3-(3-(3-(2-(pyrazolo[1,5-a]pyrimidin-3-ylamino)pyrimidin-4-yl)phenyl)isoxazol-5-yl)pyrrolidin-2-one], the figure is > 500 nM.
Regarding `CN1CC[C@@](O)(c2cc(-c3cccc(-c4ccnc(N5CCCn6ncc(N)c65)n4)c3)no2)C1=O` [Example 19, (R)-3-(3-(3-(2-(3-Amino-6,7-dihydropyrazolo[1,5-a]pyrimidin-4(5H)-)pyrimidin-4-yl)phenyl)isoxazol-5-yl)-3-hydroxy-1-methylpyrrolidin-2-one], the IC50 is > 500 nM.
Consider `CN1CC[C@@](O)(c2cc(-c3cccc(-c4ccnc(Nc5cnn6c5NCCC6)n4)c3)no2)C1=O` [Example 20, (R)-3-Hydroxy-1-methyl-3-(3-(3-(2-((4,5,6,7-tetrahydropyrazolo[1,5-a]pyrimidin-3-yl)amino)pyrimidin-4-yl)phenyl)isoxazol-5-yl)pyrrolidin-2-one], for which the IC50 was > 500 nM.
The result for `CN1CC[C@@](O)(c2cc(-c3cccc(-c4ccnc(Nc5cnn(C)c5N)n4)c3)no2)C1=O` [Example 21, (R)-3-(3-(3-(2-((5-Amino-1-methyl-1H-pyrazol-4-yl)amino)pyrimidin-4-yl)phenyl)isoxazol-5-yl)-3-hydroxy-1-methylpyrrolidin-2-one] reads > 500 nM.
Regarding `CN1CC[C@@](O)(c2cc(-c3cccc(-c4ccnc(Nc5cc6n(n5)CCOC6)n4)c3)no2)C1=O` [Example 22, (R)-3-(3-(3-(2-((6,7-Dihydro-4H-pyrazolo[5,1-c][1,4]oxazin-2-yl)amino)pyrimidin-4-yl)phenyl)isoxazol-5-yl)-3-hydroxy-1-methylpyrrolidin-2-one], the IC50 was > 500 nM.
As to `CN1CCn2nc(Nc3nccc(-c4cccc(-c5cc([C@]6(O)CCN(C)C6=O)on5)c4)n3)cc2C1=O` [Example 23, (R)-2-((4-(3-(5-(3-Hydroxy-1-methyl-2-oxopyrrolidin-3-yl)isoxazol-3-yl)phenyl)pyrimidin-2-yl)amino)-5-methyl-6,7-dihydropyrazolo[1,5-a]pyrazin-4(5H)-one], the IC50 was 50 to 500 nM.
As for `Cc1ncccc1Nc1nccc(-c2cccc(-c3cc([C@]4(O)CCN(C)C4=O)on3)c2)n1` [Example 24, (R)-3-Hydroxy-1-methyl-3-(3-(3-(2-((2-methylpyridin-3-yl)amino)pyrimidin-4-yl)phenyl)isoxazol-5-yl)pyrrolidin-2-one], the IC50 was 50 to 500 nM.
For the compound `CN1CC[C@@](O)(c2cc(-c3cccc(-c4ccnc(Nc5ccn(C)n5)n4)c3)no2)C1=O` [Example 25, (R)-3-Hydroxy-1-methyl-3-(3-(3-(2-((1-methyl-1H-pyrazol-3-yl)amino)pyrimidin-4-yl)phenyl)isoxazol-5-yl)pyrrolidin-2-one], the IC50 is 50 to 500 nM.
The result for `CN1CC[C@@](O)(c2cc(-c3cccc(-c4ccnc(Nc5ccnn5C)n4)n3)no2)C1=O` [Example 26, (R)-3-Hydroxy-1-methyl-3-(3-(6-(2-((1-methyl-1H-pyrazol-5-yl)amino)pyrimidin-4-yl)pyridin-2-yl)isoxazol-5-yl)pyrrolidin-2-one] reads < 50 nM; that for `CN1CC(F)(F)[C@@](O)(c2cc(-c3cccc(-c4ccnc(Nc5ccn(C)n5)n4)n3)no2)C1=O` [Example 27, (R)-4,4-Difluoro-3-hydroxy-1-methyl-3-(3-(6-(2-((1-methyl-1H-pyrazol-3-yl)amino)pyrimidin-4-yl)pyridin-2-yl)isoxazol-5-yl)pyrrolidin-2-one], < 50 nM.
As for `CN1CC[C@@](O)(c2cc(-c3cccc(-c4ccnc(Nc5cn(CC(F)F)nc5OC5CC5)n4)n3)no2)C1=O` [Example 28, (R)-3-(3-(6-(2-((3-Cyclopropoxy-1-(2,2-difluoroethyl)-1H-pyrazol-4-yl)amino)pyrimidin-4-yl)pyridin-2-yl)isoxazol-5-yl)-3-hydroxy-1-methylpyrrolidin-2-one], the figure is < 50 nM; as for `Cc1nn(C)cc1Nc1nccc(-c2cccc(-c3cc([C@]4(O)CCN(C)C4=O)on3)n2)n1` [Example 29, (R)-3-(3-(6-(2-((1,3-Dimethyl-1H-pyrazol-4-yl)amino)pyrimidin-4-yl)pyridin-2-yl)isoxazol-5-yl)-3-hydroxy-1-methylpyrrolidin-2-one], < 50 nM.
The result for `CN1CC[C@@](O)(c2cc(-c3cccc(-c4ccnc(Nc5cnn(C)c5)n4)n3)on2)C1=O` [Example 30, (R)-3-Hydroxy-1-methyl-3-(5-(6-(2-((1-methyl-1H-pyrazol-4-yl)amino)pyrimidin-4-yl)pyridin-2-yl)isoxazol-3-yl)pyrrolidin-2-one] reads < 50 nM; that for `CN1CC[C@@](O)(c2cc(-c3cccc(-c4ccnc(-n5ccc(N)n5)n4)n3)no2)C1=O` [Example 32, (R)-3-(3-(6-(2-(3-Amino-1H-pyrazol-1-yl)pyrimidin-4-yl)pyridin-2-yl)isoxazol-5-yl)-3-hydroxy-1-methylpyrrolidin-2-one], > 500 nM.
Consider `CN1CC[C@@](O)(c2cc(-c3cccc(-c4ccnc(Nc5c[nH]nc5C(F)(F)F)n4)n3)no2)C1=O` [Example 33, (R)-3-Hydroxy-1-methyl-3-(3-(6-(2-((3-(trifluoromethyl)-1H-pyrazol-4-yl)amino)pyrimidin-4-yl)pyridin-2-yl)isoxazol-5-yl)pyrrolidin-2-one], for which the IC50 is > 500 nM.
As for `Cc1cn[nH]c1Nc1nccc(-c2cccc(-c3cc([C@]4(O)CCN(C)C4=O)on3)n2)n1` [Example 34, (R)-3-Hydroxy-1-methyl-3-(3-(6-(2-((4-methyl-1H-pyrazol-5-yl)amino)pyrimidin-4-yl)pyridin-2-yl)isoxazol-5-yl)pyrrolidin-2-one], the figure is 50 to 500 nM.
For `Cc1cnn(-c2nccc(-c3cccc(-c4cc([C@]5(O)CCN(C)C5=O)on4)n3)n2)c1N` [Example 35, (R)-3-(3-(6-(2-(5-Amino-4-methyl-1H-pyrazol-1-yl)pyrimidin-4-yl)pyridin-2-yl)isoxazol-5-yl)-3-hydroxy-1-methylpyrrolidin-2-one], the IC50 was > 500 nM.
The result for `Cc1n[nH]cc1Nc1nccc(-c2cccc(-c3cc([C@]4(O)CCN(C)C4=O)on3)n2)n1` [Example 36, (R)-3-Hydroxy-1-methyl-3-(3-(6-(2-((3-methyl-1H-pyrazol-4-yl)amino)pyrimidin-4-yl)pyridin-2-yl)isoxazol-5-yl)pyrrolidin-2-one] reads < 50 nM; that for `Cc1nn(-c2nccc(-c3cccc(-c4cc([C@]5(O)CCN(C)C5=O)on4)n3)n2)cc1N` [Example 37, (R)-3-(3-(6-(2-(4-Amino-3-methyl-1H-pyrazol-1-yl)pyrimidin-4-yl)pyridin-2-yl)isoxazol-5-yl)-3-hydroxy-1-methylpyrrolidin-2-one], > 500 nM.
The result for `CN1CC[C@@](O)(c2cc(-c3cccc(-c4ccnc(Nc5cnn6cccnc56)n4)n3)no2)C1=O` [Example 38, (R)-3-Hydroxy-1-methyl-3-(3-(6-(2-(pyrazolo[1,5-a]pyrimidin-3-ylamino)pyrimidin-4-yl)pyridin-2-yl)isoxazol-5-yl)pyrrolidin-2-one] reads < 50 nM; that for `CN1CC[C@@](O)(c2cc(-c3cccc(-c4ccnc(-n5cc(N)cn5)n4)n3)no2)C1=O` [Example 39, (R)-3-(3-(6-(2-(4-Amino-1H-pyrazol-1-yl)pyrimidin-4-yl)pyridin-2-yl)isoxazol-5-yl)-3-hydroxy-1-methylpyrrolidin-2-one], > 500 nM; that for `CN1CC[C@@](O)(c2cc(-c3cccc(-c4ccnc(Nc5cn[nH]c5)n4)n3)no2)C1=O` [Example 40, (R)-3-(3-(6-(2-((1H-Pyrazol-4-yl)amino)pyrimidin-4-yl)pyridin-2-yl)isoxazol-5-yl)-3-hydroxy-1-methylpyrrolidin-2-one], < 50 nM.
The result for `Cc1nocc1Nc1nccc(-c2cccc(-c3cc([C@]4(O)CCN(C)C4=O)on3)n2)n1` [Example 41, (R)-3-Hydroxy-1-methyl-3-(3-(6-(2-((3-methylisoxazol-4-yl)amino)pyrimidin-4-yl)pyridin-2-yl)isoxazol-5-yl)pyrrolidin-2-one] reads < 50 nM; that for `CN1CC[C@@](O)(c2cc(-c3cccc(-c4ccnc(Nc5cnn(CC(F)(F)F)c5)n4)n3)no2)C1=O` [Example 42, (R)-3-Hydroxy-1-methyl-3-(3-(6-(2-((1-(2,2,2-trifluoroethyl)-1H-pyrazol-4-yl)amino)pyrimidin-4-yl)pyridin-2-yl)isoxazol-5-yl)pyrrolidin-2-one], < 50 nM; that for `CN1CC[C@@](O)(c2cc(-c3cccc(-c4ccnc(NC5(c6cnn(C)c6)CC5)n4)n3)no2)C1=O` [Example 45, (R)-3-Hydroxy-1-methyl-3-(3-(6-(2-((1-(1-methyl-1H-pyrazol-4-yl)cyclopropyl)amino)pyrimidin-4-yl)pyridin-2-yl)isoxazol-5-yl)pyrrolidin-2-one], > 500 nM.
